From ChEMBL document CHEMBL1201862, “PubChem BioAssay data set” (2004)
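Five concentrations, 48 hours, 96-well plates. At the GI50, growth is halved.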 Calls of active or inactive are those of the source. Rule as the data show it: active = GI50 up to about 1.1 µM and inactive = higher.

Columns and labels:
Assay in all cases: inhibition of tumour cell growth, NCI panel, 48 h
UO-31 = system: UO-31
EKVX = system: EKVX
TK-10 = system: TK-10
OVCAR-3 = system: OVCAR-3
SF-539 = system: SF-539
HCT-116 = system: HCT-116
MDA-MB-435 = system: MDA-MB-435
CCRF-CEM = system: CCRF-CEM
PC-3 = system: PC-3
SNB-19 = system: SNB-19
SK-MEL-28 = system: SK-MEL-28
NCI-H460 = system: NCI-H460
HCT-15 = system: HCT-15
KM12 = system: KM12
LOX IMVI = system: LOX IMVI
SK-MEL-5 = system: SK-MEL-5
OVCAR-5 = system: OVCAR-5
CAKI-1 = system: CAKI-1
M14 = system: M14
SF-268 = system: SF-268
K562 = system: K562
Malme-3M = system: Malme-3M
SR = system: SR
MCF7 = system: MCF7
786-0 = system: 786-0
SN12C = system: SN12C
NCI-H522 = system: NCI-H522
A549 = system: A549
BT-549 = system: BT-549
MDA-N = system: MDA-N
COLO 205 = system: COLO 205
U-251 = system: U-251
SF-295 = system: SF-295
A498 = system: A498
OVCAR-4 = system: OVCAR-4
IGROV-1 = system: IGROV-1
UACC-62 = system: UACC-62
NCI/ADR-RES = system: NCI/ADR-RES
NCI-H23 = system: NCI-H23
HOP-62 = system: HOP-62
OVCAR-8 = system: OVCAR-8
DU-145 = system: DU-145
HL-60 = system: HL-60
NCI-H226 = system: NCI-H226
Hs-578T = system: Hs-578T
HCC 2998 = system: HCC 2998
ACHN = system: ACHN
HT-29 = system: HT-29
RXF 393 = system: RXF 393
SK-MEL-2 = system: SK-MEL-2
SK-OV-3 = system: SK-OV-3
UACC-257 = system: UACC-257
MDA-MB-231 = system: MDA-MB-231
T47D = system: T47D
MOLT-4 = system: MOLT-4
HOP-92 = system: HOP-92
SW-620 = system: SW-620
SNB-75 = system: SNB-75
RPMI-8226 = system: RPMI-8226

## O=C(CCc1ccc(O)cc1)NCCc1ccc(O)cc1
UO-31
  GI50: > 100 µM (inactive)
EKVX
  GI50: > 100 µM (inactive)
TK-10
  GI50: > 100 µM (inactive)
OVCAR-3
  GI50: > 100 µM (inactive)
SF-539
  GI50: > 100 µM (inactive)
HCT-116
  GI50: > 100 µM (inactive)
MDA-MB-435
  GI50: > 100 µM (inactive)
CCRF-CEM
  GI50: > 100 µM (inactive)
PC-3
  GI50: > 100 µM (inactive)
SNB-19
  GI50: > 100 µM (inactive)
SK-MEL-28
  GI50: > 100 µM (inactive)
NCI-H460
  GI50: > 100 µM (inactive)
HCT-15
  GI50: > 100 µM
KM12
  GI50: > 100 µM (inactive)
LOX IMVI
  GI50: > 100 µM (inactive)
SK-MEL-5
  GI50: > 100 µM (inactive)
OVCAR-5
  GI50: > 100 µM (inactive)
CAKI-1
  GI50: > 100 µM (inactive)
M14
  GI50: > 100 µM (inactive)
SF-268
  GI50: > 100 µM (inactive)
K562
  GI50: > 100 µM (inactive)
Malme-3M
  GI50: > 100 µM (inactive)
SR
  GI50: > 100 µM (inactive)
MCF7
  GI50: > 100 µM (inactive)
786-0
  GI50: > 100 µM (inactive)
SN12C
  GI50: > 100 µM (inactive)
NCI-H522
  GI50: > 100 µM (inactive)
A549
  GI50: > 100 µM (inactive)
BT-549
  GI50: 62.4 µM (inactive)
MDA-N
  GI50: > 100 µM (inactive)
COLO 205
  GI50: > 100 µM (inactive)
U-251
  GI50: > 100 µM (inactive)
SF-295
  GI50: > 100 µM (inactive)
A498
  GI50: > 100 µM (inactive)
OVCAR-4
  GI50: > 100 µM (inactive)
IGROV-1
  GI50: > 100 µM (inactive)
UACC-62
  GI50: > 100 µM (inactive)
NCI/ADR-RES
  GI50: > 100 µM (inactive)
NCI-H23
  GI50: > 100 µM (inactive)
HOP-62
  GI50: > 100 µM (inactive)
OVCAR-8
  GI50: > 100 µM (inactive)
DU-145
  GI50: > 100 µM (inactive)
HL-60
  GI50: > 100 µM (inactive)
NCI-H226
  GI50: > 100 µM (inactive)
Hs-578T
  GI50: > 100 µM (inactive)
HCC 2998
  GI50: > 100 µM (inactive)
ACHN
  GI50: 62.4 µM (inactive)
HT-29
  GI50: > 100 µM (inactive)
RXF 393
  GI50: > 100 µM (inactive)
SK-MEL-2
  GI50: > 100 µM (inactive)
SK-OV-3
  GI50: > 100 µM (inactive)
UACC-257
  GI50: > 100 µM (inactive)
MDA-MB-231
  GI50: > 100 µM (inactive)
T47D
  GI50: > 100 µM (inactive)
MOLT-4
  GI50: > 100 µM (inactive)
HOP-92
  GI50: > 100 µM (inactive)

## CC(Cc1cccc2c1Nc1ccccc1S2)N(C)CCO (stereo not drawn)
UO-31
  GI50: > 100 µM (inactive)
EKVX
  GI50: > 100 µM (inactive)
TK-10
  GI50: > 100 µM (inactive)
OVCAR-3
  GI50: > 100 µM (inactive)
SF-539
  GI50: > 100 µM (inactive)
HCT-116
  GI50: > 100 µM (inactive)
MDA-MB-435
  GI50: > 100 µM (inactive)
CCRF-CEM
  GI50: > 100 µM (inactive)
PC-3
  GI50: > 100 µM (inactive)
SNB-19
  GI50: > 100 µM (inactive)
SK-MEL-28
  GI50: > 100 µM (inactive)
NCI-H460
  GI50: > 100 µM (inactive)
HCT-15
  GI50: > 100 µM
KM12
  GI50: > 100 µM (inactive)
LOX IMVI
  GI50: > 100 µM (inactive)
SK-MEL-5
  GI50: > 100 µM (inactive)
OVCAR-5
  GI50: > 100 µM (inactive)
CAKI-1
  GI50: > 100 µM (inactive)
M14
  GI50: > 100 µM (inactive)
SF-268
  GI50: > 100 µM (inactive)
K562
  GI50: > 100 µM (inactive)
Malme-3M
  GI50: > 100 µM (inactive)
SR
  GI50: > 100 µM (inactive)
MCF7
  GI50: > 100 µM (inactive)
786-0
  GI50: > 100 µM (inactive)
SN12C
  GI50: > 100 µM (inactive)
NCI-H522
  GI50: > 100 µM (inactive)
A549
  GI50: > 100 µM (inactive)
BT-549
  GI50: > 100 µM (inactive)
MDA-N
  GI50: > 100 µM (inactive)
COLO 205
  GI50: > 100 µM (inactive)
U-251
  GI50: > 100 µM (inactive)
SF-295
  GI50: > 100 µM (inactive)
A498
  GI50: 26.4 µM (inactive)
OVCAR-4
  GI50: > 100 µM (inactive)
IGROV-1
  GI50: > 100 µM (inactive)
UACC-62
  GI50: > 100 µM (inactive)
NCI/ADR-RES
  GI50: > 100 µM (inactive)
NCI-H23
  GI50: > 100 µM (inactive)
HOP-62
  GI50: > 100 µM (inactive)
OVCAR-8
  GI50: > 100 µM (inactive)
DU-145
  GI50: > 100 µM (inactive)
HL-60
  GI50: > 100 µM (inactive)
NCI-H226
  GI50: > 100 µM (inactive)
Hs-578T
  GI50: > 100 µM (inactive)
HCC 2998
  GI50: > 100 µM (inactive)
ACHN
  GI50: > 100 µM (inactive)
HT-29
  GI50: > 100 µM (inactive)
RXF 393
  GI50: > 100 µM (inactive)
SK-OV-3
  GI50: > 100 µM (inactive)
SW-620
  GI50: > 100 µM (inactive)
UACC-257
  GI50: > 100 µM (inactive)
MDA-MB-231
  GI50: > 100 µM (inactive)
T47D
  GI50: > 100 µM (inactive)
MOLT-4
  GI50: > 100 µM (inactive)
HOP-92
  GI50: > 100 µM (inactive)

## O=C(/C=C/c1ccc(O)c(O)c1)O[C@H]1CCCC[C@@H]1OC(=O)/C=C/c1ccc(O)c(O)c1
UO-31
  GI50: 7.03 µM (inactive)
EKVX
  GI50: 20.6 µM (inactive)
TK-10
  GI50: 14.9 µM (inactive)
OVCAR-3
  GI50: 5.51 µM (inactive)
SF-539
  GI50: 11.1 µM (inactive)
HCT-116
  GI50: 3.72 µM (inactive)
MDA-MB-435
  GI50: 8.83 µM (inactive)
CCRF-CEM
  GI50: 4.8 µM (inactive)
PC-3
  GI50: 15.6 µM (inactive)
SNB-19
  GI50: 12.3 µM (inactive)
SK-MEL-28
  GI50: 15.8 µM (inactive)
NCI-H460
  GI50: 5.14 µM (inactive)
HCT-15
  GI50: 6.73 µM
KM12
  GI50: 20.7 µM (inactive)
LOX IMVI
  GI50: 3.45 µM (inactive)
SK-MEL-5
  GI50: 6.04 µM (inactive)
OVCAR-5
  GI50: 15.6 µM (inactive)
CAKI-1
  GI50: 7.48 µM (inactive)
M14
  GI50: 15.9 µM (inactive)
SF-268
  GI50: 11.6 µM (inactive)
K562
  GI50: 7.57 µM (inactive)
Malme-3M
  GI50: 15.7 µM (inactive)
SR
  GI50: 5.87 µM (inactive)
MCF7
  GI50: 19.2 µM (inactive)
786-0
  GI50: 7.48 µM (inactive)
SN12C
  GI50: 13.6 µM (inactive)
NCI-H522
  GI50: 5.22 µM (inactive)
A549
  GI50: 11.7 µM (inactive)
BT-549
  GI50: 17.5 µM (inactive)
MDA-N
  GI50: 8.87 µM (inactive)
COLO 205
  GI50: 22.9 µM (inactive)
U-251
  GI50: 14.8 µM (inactive)
SF-295
  GI50: 12.9 µM (inactive)
A498
  GI50: 22.3 µM (inactive)
OVCAR-4
  GI50: 17.9 µM (inactive)
IGROV-1
  GI50: 4.9 µM (inactive)
UACC-62
  GI50: 8.09 µM (inactive)
SNB-75
  GI50: 17.8 µM (inactive)
NCI/ADR-RES
  GI50: 21.8 µM (inactive)
NCI-H23
  GI50: 13.6 µM (inactive)
RPMI-8226
  GI50: 9.18 µM (inactive)
HOP-62
  GI50: 9.77 µM (inactive)
OVCAR-8
  GI50: 10.9 µM (inactive)
DU-145
  GI50: 13.8 µM (inactive)
Hs-578T
  GI50: 29.9 µM (inactive)
HCC 2998
  GI50: 11.2 µM (inactive)
ACHN
  GI50: 7.98 µM (inactive)
RXF 393
  GI50: 10.5 µM (inactive)
SK-MEL-2
  GI50: 22.7 µM (inactive)
SK-OV-3
  GI50: 15.8 µM (inactive)
SW-620
  GI50: 3.52 µM (inactive)
UACC-257
  GI50: 15.6 µM (inactive)
MDA-MB-231
  GI50: 20.5 µM (inactive)
T47D
  GI50: 16.2 µM (inactive)
MOLT-4
  GI50: 3.85 µM (inactive)
HOP-92
  GI50: 8.93 µM (inactive)
